The record followed here is US5420289A, “Substituted indole-, indene-, pyranoindole- and tetrahydrocarbazole-alkanoic acid derivatives as inhibitors of PLA2 and lipoxygenase” (American Home Products Corporation, priority 1993, dated 1995).

Structures are written as SMILES.

The test system of assay [1] is synthesis of LTB4 by rat glycogen-elicited polymorphonuclear leukocytes (PMN). Briefly: inhibition of LTB4 synthesis by rat glycogen-elicited PMN (Example 72). The class given is cell-based, rat (female Wistar). Conditions: Leukocyte; for inhibition at 10000 µM: at 10 mM, negative number denotes potentiation; for inhibition at 500 µM: at 0.5 mM. The gist of the method:
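Peritoneal PMNs from female Wistar rats 18-24 h after i.p. glycogen, 2.0×10^7 cells/mL in HBSS with Ca/Mg and 10 mM L-cysteine; compound preincubated 10 min at 37° C, then A23187 […] added for 10 min. Supernatant [3H]-LTB4 quantified by radio-HPLC versus drug-free stimulated cells; percent inhibition or IC50.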

Assay [2] concerns cyclooxygenase (PGE2 synthesis) in rat polymorphonuclear leukocytes (PMN). Kind of assay: inhibition of PGE2 synthesis (cyclooxygenase) by rat glycogen-elicited PMN (Example 73). The format is cell-based, rat (female Wistar). The settings on record: Leukocyte, * (negative) denotes a potentiation; for inhibition at 10000 µM: at 10 mM, read-out: % Inhibition (PGE2 synthesis); for inhibition at 500 µM: at 0.5 mM. A digest of the protocol: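 Glycogen-elicited peritoneal PMNs from female Wistar rats, 2.0×10^7 cells/mL in HBSS with Ca/Mg and 10 mM L-cysteine, preincubated with drug 10 min at 37° C. Stimulated 10 min with A23187 plus [3H]-AA and unlabeled AA (stocks 1 mM); supernatant [3H]-PGE2 measured by reverse-phase HPLC co-chromatographed with reference standard.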

The target of assay [3] is T1, LTD4 (isolated guinea pig trachea) (Cavia porcellus, UniProt Q2NNR5).
T1 sequence (Q2NNR5 1-340): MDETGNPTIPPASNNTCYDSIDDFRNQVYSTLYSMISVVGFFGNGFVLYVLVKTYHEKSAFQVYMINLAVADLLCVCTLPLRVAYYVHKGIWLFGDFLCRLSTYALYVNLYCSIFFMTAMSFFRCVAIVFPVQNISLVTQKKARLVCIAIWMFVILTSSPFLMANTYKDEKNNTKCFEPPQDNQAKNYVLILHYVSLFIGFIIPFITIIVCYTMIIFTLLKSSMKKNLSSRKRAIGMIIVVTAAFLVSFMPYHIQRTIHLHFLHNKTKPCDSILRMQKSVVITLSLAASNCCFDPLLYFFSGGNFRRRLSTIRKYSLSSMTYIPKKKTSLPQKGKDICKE
Briefly: in vitro isolated guinea pig trachea assay, LTD4 antagonism (Example 77). The settings on record: Table VII; 1 × 10^-5 M. Details: from tissue; host or cells: isolated trachea rings of male Hartley guinea pigs; species or system guinea pig (male Hartley). On the procedure:
The LTD4 antagonist activity of the compounds of the invention is assessed in the in vitro isolated guinea pig trachea assay. This assay is carried out as follows: Male Hartley guinea pigs (350-400 g) are euthanized by a blow to the head, the neck is opened and the trachea removed. The trachea is maintained in aerated physiological salt solution, cleared of connective tissue and fat and cut into tings approximately 2 nxn in width (usually containing two cartilaginous segments per ting). Two pieces of silk suture are then passed through the lumen of the tracheal ring and are tied around the cartilage, one on each side of the trachealis muscle. The tracheal ting is suspended between a glass hook and a force […] transducer in a 10 mL organ bath for measurement of isometric tension. […] The tracheal […] maintained at 2 g resting tension and equilibrated for 45 minutes (with frequent washing and readjustment of resting tension). The tracheal rings are first contracted by the addition of carbachol (3×10^-6 M), to determine tissue responsiveness and establish a reference contraction. On attainment of a stable level of contraction (approximately 30 minutes), the tissues are washed several times until baseline tension has been restored and then re-equilibrated for 30 minutes. The tissues are then incubated for 45 minutes with a test antagonist (either 1×10^-6 M or 1×10^-5 M) or […] of an appropriate solvent control (control, non-treated). One tissue in each group serves as the control. Twenty minutes prior to the construction of the LTD4 cumulative concentration-response curve, L-[…]×10^-2 M final bath concentration) is added to inhibit bioconversion of LTD4 to LTE4. Only one LTD4 concentration-response curve is constructed in each tissue. All responses to LTD4 in an individual tissue are measured as a percentage of the reference contraction of that tissue to carbachol. LTD4 antagonist activity is determined by comparison of the concentration response curves of LTD4 in the presence and absence of antagonist. Assessment of the relative rightward shift of the antagonist treated curve relative to the solvent (control) treated tissue is calculated as a concentration ratio (Eq. A) and used in subsequent calculations to derive an antagonist pKB value (Eqs B and C). […] If a compound is found to be active and/or depress the maximal response to LTD4, then a range of concentrations of the test compound should be used generating multiple concentration ratios which would then be used to perform a Schild analysis, and determination of a pA2 value where appropriate.

Assay [4] relates to lipoxygenase pathway (LTC4). Kind of assay: in vivo murine zymosan peritonitis assay, LTC4 (Example 76). Details: species or system mouse (male CD-1). The settings on record: 50 mg/kg p.o.; negative values denote potentiation. On the procedure:
(§1) The compounds of the invention are evaluated for their ability to inhibit the lipoxygenase and/or cyclooxygenase pathways of arachidonic acid metabolism in the in vivo murine zymosan peritonitis assay.
(§2) This assay is carried out as follows:
(§3) Male CD-1 mice (8 weeks old) are placed in plastic boxes in groups of six. Animals are injected with 1 mL i.p. of either 1% zymosan in pyrogen free 0.9% saline or saline (unstimulated control). Compounds are dosed orally 1 hour prior to zymosan injection. Twenty minutes after zymosan injection, the mice are asphyxiated by CO2 inhalation and tile peritoneal cavity is lavaged with 2 mL ice cold Hanks Balanced Salt Solution (HBSS) without CaCl2, MgSO4 ·7H2 O and MgCl2 ·6H2 O. Peritoneal lavage fluid from each mouse is removed by syringe and placed in 5 mL plastic test tubes put on ice and volume is noted. […]
(§4) The total metabolite level in lavage fluid/mouse is calculated and the significance is determined by a one-way analysis of variance with LSD comparisons to control (p<0.05). Drug effects are expressed as a percent change from control values.

Assay [5] deals with cyclooxygenase pathway (6-keto-PGF1a). Kind of assay: in vivo murine zymosan peritonitis assay, 6-keto-PGF1a (Example 76). More on the design: species or system mouse (male CD-1). The settings on record: 50 mg/kg p.o.; negative values denote potentiation. On the procedure:
as §1, §2, §3, §4

In the next assay the test system is carrageenan paw edema. Briefly: rat carrageenan paw edema assay (Example 78). The format is in vivo, rat (male Sprague-Dawley). The settings on record: for % Inhibition 50 mg/kg (peroral): 3 hours after carrageenan. The protocol: The compounds of the invention are further tested in the rat carrageenan paw edema assay to determine their ability to inhibit the acute inflammatory response.
This assay is carried out as follows: 140-180 g Male Sprague-Dawley rats, in groups of 6 animals are injected subcutaneously in the right paw with 0.1 mL of 1% carrageenan at zero time. Mercury plethysmographic readings (mL) of the paw are made at zero time and 3 hours later. Test compounds are suspended or dissolved in 0.5% methylcellulose and given perorally 1 hour prior to carrageenan administration.
The increase in paw volume (edema in mL) produced by the carrageenan is measured. Paw edema is calculated (3 hour volume minus zero time volume), and percent inhibition of edema is determined. Unpaired Student's t-test is used to determine statistical significance.

A further assay deals with T2, human platelet PLA2 (Homo sapiens, UniProt P14555).
T2 construct: Semi-purified human platelet acid extract PLA2; from tissue; host or cells: human platelets (semi-purified acid extract)
T2 sequence (P14555 21-144): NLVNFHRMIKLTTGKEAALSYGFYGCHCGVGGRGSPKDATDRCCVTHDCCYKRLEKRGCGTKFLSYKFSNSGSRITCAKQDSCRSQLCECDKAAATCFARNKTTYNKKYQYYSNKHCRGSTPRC
Kind of assay: in vitro isolated phospholipase A2 assay, human platelet PLA2 (Example 74). The class given is biochemical. Details: dose or concentration left out as unconfirmed. The settings on record: read-out: % Inhibition, HP (human platelet). A digest of the protocol: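 Semi-purified human platelet acid-extract PLA2 (pH 4.5 acetate) was incubated with ³H-arachidonate-labelled E. coli substrate for 10 min at 37° C. The reaction was terminated with tetrahydrofuran. Released arachidonic acid was isolated on NH2 columns and quantified by β-counting against total counts.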

Assay [6] concerns the target T3, human synovial fluid PLA2 (Homo sapiens, UniProt P14555).
T3 sequence (P14555 21-144): T2 sequence (P14555 21-144)
Briefly: in vitro isolated phospholipase A2 assay, human synovial fluid PLA2 (Example 74). More on the design: inhibition / % Inhibition, HSF (human synovial fluid): dose or concentration left out as unconfirmed. Conditions: for inhibition: read-out: % Inhibition, HSF (human synovial fluid). The format is biochemical. A digest of the protocol:
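Human synovial fluid PLA2 (purified) acts on ³H-arachidonate-labelled E. coli substrate, 10 minutes at 37° C with shaking; stopped with tetrahydrofuran. Released arachidonic acid is isolated on NH2 columns, eluted with tetrahydrofuran/2% acetic acid and quantitated by β-counting against a total-counts sample.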

For assay [7], the system named is paw edema induced by PLA2 from the diamond back cotton mouth snake (A. piscivorus piscivorus). Kind of assay: in vivo PLA2 murine paw edema assay (Example 75). More on the design: species or system mouse (male CD-1). Conditions: 30 mg/kg i.p.; 30 min.
In assay [8] the test system is 5-lipoxygenase in human whole blood. Briefly: inhibition of 5-lipoxygenase in human whole blood (Example 79). The class given is cell-based. The settings on record: for % Inhibition of LTB4: 25 μM. A digest of the protocol:
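Donor whole blood pre-incubated 10 min at 37° C with compound (0.1% DMSO final), then stimulated with […] calcium ionophore A23187 for 20 min at 37° C; stopped on ice with EGTA. Plasma LTB4, TxB2 and PGE2 measured by RIA or ELISA as ng/10^6 neutrophils; effects expressed as percent change from control.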

For `CCC1(CC(=O)O)OCCc2c1[nH]c1ccc(OCc3ccc4ccccc4n3)cc21` (stereo not drawn) [Example 9, 1-Ethyl-1,3,4,9-tetrahydro-6-(quinolinylmethoxy)pyrano[3,4-b]indole-1-acetic acid], the figures for the inhibition at 10000 µM in [1] and in [2] were 96% and 75%, respectively. Further, the Kb (in general, the affinity of an antagonist, worked out from how it opposes an agonist) in assay [3] is 0.55 µM.
As to `CC1(CC(=O)O)OCCc2c1[nH]c1ccc(OCc3ccc4ccccc4n3)cc21` (stereo not drawn) [Example 10, 1-Methyl-1,3,4,9-tetrahydro-6-(2-quinolinylmethoxy)pyrano[3.4-b]indole-1-acetic acid], the inhibition (usually the change of the read-out against control, counted positive when it falls) at 10000 µM is 91% in [1] and -41% in assay [2]. Besides, the “% Inhibition LTC4” value in assay [4] is reported as 11%. In addition, in assay [5], the “% Inhibition 6-keto-PGF” value is given as -5%. In addition, in the assay with carrageenan paw edema, the “% Inhibition 50 mg/kg (peroral)” value turned out to be 48%.
The corresponding values for `CCC1(CC(=O)O)CCCc2c1[nH]c1ccc(OCc3ccc4ccccc4n3)cc21` (stereo not drawn) [Example 11, 1-Ethyl-2,3,4,9-tetrahydro-6-(2-quinolinylmethoxy)-1H-carbazole-1-acetic acid] are 95%, 80%, -49%, 47% and “+1%”.
Turning to `CC1(C)OCCc2c1[nH]c1ccc(OCc3ccc4ccccc4n3)cc21` [Example 14, 1,3,4,9-Tetrahydro-1,1-dimethyl-6-(2-quinolinylmethoxy)pyrano[3,4-b]indole], the inhibition at 10000 µM in assay [1] was 91%; in [2], -48%. For the same compound, the “% Inhibition 50 mg/kg (peroral)” value in the assay on carrageenan paw edema stood at 27%.
On to `Cc1c(CC(=O)O)c2cc(OCc3ccc4ccccc4n3)ccc2n1Cc1ccc2ccccc2n1` [Example 18, 2-Methyl-5-(2-quinolinylmethoxy)-1,2-(quinolinylmethy)-1H-indole-3-acetic acid], for which the inhibition at 500 µM in [1] is 88%; in [2] it was -31%. In addition, the figures for the inhibition (at human platelet PLA2; in assay [6]) were 47% and 30%, respectively. Also, the IC50 (in general, the concentration that inhibits the measured activity by half) in assay [6] (Table III, read-out: IC50 HSF (human synovial fluid)) is 27 µM. Moreover, the “% Change in Edema” value in assay [7] was -19%. The Kb in assay [3] is 1.41 µM.
With `CCOC(=O)Cc1c(C)n(Cc2ccccc2)c2ccc(OCc3nc4ccccc4s3)cc12` [Example 50, 5-(2-Benzothiazolylmethoxy)-1-(phenylmethyl)-2-methyl-1H-indole-3-acetic acid ethyl ester], in assay [6], the inhibition worked out at 2%. In addition, the “% Inhibition of LTB4” value in assay [8] was found to be 95%. Also, the Kb in assay [3] was 3.98 µM.
For the compound `CCN(CC)C(=O)Cc1c(C)n(Cc2ccccc2)c2ccc(OCc3nc4ccccc4s3)cc12` [Example 52, 5-(2-Benzothiazolylmethoxy)-N,N-diethyl-1-(phenylmethyl)-2-methyl-1H-indole-3-acetamide], the inhibition in assay [6] was 12%. Besides, the “% Inhibition of LTB4” value in assay [8] turned out to be 68%. The IC50 in [8] (human whole blood, read-out: IC50 (inhibition of LTB4)) came to 19.9 µM. In assay [3], the Kb is 2.51 µM.
As to `CCc1cccc2c3c([nH]c12)C(CC)(CC(=O)O)OCC3` (stereo not drawn) [etodolac, reference compound], the inhibition at 500 µM came out at 21% in assay [1] and 100% in assay [2]. In addition, it took a dose of 23 mg/kg to reach the 50% effect level in the assay with carrageenan paw edema (Rattus norvegicus, 3 h, oral, Table VIII) (ED50).
